From ChEMBL document CHEMBL1201862, “PubChem BioAssay data set” (2004) come the findings set out here.

SMILES strings stand for the structures. The source made the active and inactive calls.

One may read the IC50 as the concentration that inhibits the measured activity by half. In general, EC50 refers to the concentration needed to bring the measured effect to its halfway point. In general, AC50 refers to the concentration at which the activity in the assay is half-maximal.

Assay [1] deals with T1, SUMO-activating enzyme (Homo sapiens, UniProt Q9UBT2). Nature of the assay: blockers of SAE1/SAE2–UBC9 SUMO transfer – biochemical, HTRF, uHTS, primary screen (AID 2006). Type of assay: protein-complex assay.
For assay [2], the target named is T1, SUMO-activating enzyme. Nature of the assay: blockers of UBC9-mediated SUMO conjugation – biochemical, AlphaScreen, SUMOylation inhibitor project, confirmation (AID 2018). Type of assay: functional.
The target of assay [3] is Eukaryotic translation initiation factor 4H (Homo sapiens, UniProt Q15056). Nature of the assay: inhibitors of translation initiation factor eIF4H – SAR follow-up (AID 435011). Type of assay: functional.
Assay [4] addresses Polyadenylate-binding protein 1 (Homo sapiens, UniProt P11940). Nature of the assay: PABP inhibition in translation initiation, SAR follow-up (AID 435018). Type of assay: functional.
The target of the next assay is T2, Insulin-degrading enzyme (Homo sapiens, UniProt P14735).
T2 sequence (P14735 whole entry): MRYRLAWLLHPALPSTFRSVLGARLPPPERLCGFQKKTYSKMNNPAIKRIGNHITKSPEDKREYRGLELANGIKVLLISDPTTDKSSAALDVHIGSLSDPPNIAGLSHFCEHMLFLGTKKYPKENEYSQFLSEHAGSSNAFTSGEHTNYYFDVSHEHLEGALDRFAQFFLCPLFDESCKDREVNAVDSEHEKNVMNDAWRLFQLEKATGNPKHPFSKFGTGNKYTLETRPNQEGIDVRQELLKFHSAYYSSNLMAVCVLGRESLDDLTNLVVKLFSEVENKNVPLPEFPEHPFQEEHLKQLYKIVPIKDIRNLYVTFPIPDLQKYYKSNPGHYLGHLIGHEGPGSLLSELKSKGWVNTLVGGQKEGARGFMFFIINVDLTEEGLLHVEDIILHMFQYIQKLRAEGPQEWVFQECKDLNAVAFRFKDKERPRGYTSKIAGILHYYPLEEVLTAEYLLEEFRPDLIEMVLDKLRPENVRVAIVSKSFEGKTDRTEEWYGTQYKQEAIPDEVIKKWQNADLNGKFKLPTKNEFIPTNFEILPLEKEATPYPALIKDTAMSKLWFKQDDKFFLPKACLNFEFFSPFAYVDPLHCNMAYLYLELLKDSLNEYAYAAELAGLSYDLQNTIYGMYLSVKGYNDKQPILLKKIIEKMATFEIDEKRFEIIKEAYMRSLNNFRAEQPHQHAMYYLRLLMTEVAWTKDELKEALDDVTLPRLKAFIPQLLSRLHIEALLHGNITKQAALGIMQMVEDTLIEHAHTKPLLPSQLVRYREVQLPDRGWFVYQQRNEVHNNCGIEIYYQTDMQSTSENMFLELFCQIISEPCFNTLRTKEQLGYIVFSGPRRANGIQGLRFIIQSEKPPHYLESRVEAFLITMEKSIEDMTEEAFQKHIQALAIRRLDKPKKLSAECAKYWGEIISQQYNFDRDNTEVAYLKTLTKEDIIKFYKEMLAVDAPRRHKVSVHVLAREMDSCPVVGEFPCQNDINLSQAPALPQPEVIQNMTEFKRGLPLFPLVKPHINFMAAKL
Nature of the assay: Dose Response: Fluorescence polarization-based cell-based high throughput dose response assay for inhibitors of insulin-degrading enzyme (IDE). [Related pubchem assays: 434962 (Primary screen (IDE inhibitors in singlicate)), 449730 (Counterscreen (Cytotoxicity in triplicate)), 435028 (Confirmation (IDE inhibitors in triplicate)), 434984 (Summary …. Type of assay: functional. On the technique in general: Fluorescence polarisation rises when a labelled molecule tumbles more slowly, as on binding a larger partner.

For assay [5], the target named is T3, Zinc finger protein mex-5 (Caenorhabditis elegans, UniProt Q9XUB2).
T3 sequence (Q9XUB2 whole entry): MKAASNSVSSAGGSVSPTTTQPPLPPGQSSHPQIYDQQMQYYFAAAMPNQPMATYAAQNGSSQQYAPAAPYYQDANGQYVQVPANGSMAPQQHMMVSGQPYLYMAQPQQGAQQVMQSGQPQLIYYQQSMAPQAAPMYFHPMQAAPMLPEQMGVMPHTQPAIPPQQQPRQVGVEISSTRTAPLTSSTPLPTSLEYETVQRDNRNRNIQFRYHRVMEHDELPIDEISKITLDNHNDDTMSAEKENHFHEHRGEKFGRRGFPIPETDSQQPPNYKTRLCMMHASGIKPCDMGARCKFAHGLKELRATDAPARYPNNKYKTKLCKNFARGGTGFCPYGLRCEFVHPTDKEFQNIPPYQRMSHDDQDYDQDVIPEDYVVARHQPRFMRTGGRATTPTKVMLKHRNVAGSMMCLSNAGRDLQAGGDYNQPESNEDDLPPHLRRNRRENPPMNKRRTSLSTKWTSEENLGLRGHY
Nature of the assay: potency of MEX-5 RNA-binding blockers – biochemical, C. elegans, fluorescence polarization, dose response (AID 1960).

Assay [6] can be described thus: Counterscreen for IDE inhibitors: Luminescence-based cell-based high throughput dose response assay to identify compounds that are cytotoxic to HEK cells. [Related pubchem assays: 434962 (Primary screen (IDE inhibitors in singlicate)), 449730 (Counterscreen (Cytotoxicity in triplicate)), 435028 (Confirmation (IDE inhibitors in triplicate)) …. Type of assay: functional. Conditions: HEK293. (In general: The purpose of a counterscreen is to sort out artefacts and off-target activity.)

Assay [7] has as its target T4, RNA-binding protein pos-1 (Caenorhabditis elegans, UniProt G5EF15).
T4 sequence (G5EF15 whole entry): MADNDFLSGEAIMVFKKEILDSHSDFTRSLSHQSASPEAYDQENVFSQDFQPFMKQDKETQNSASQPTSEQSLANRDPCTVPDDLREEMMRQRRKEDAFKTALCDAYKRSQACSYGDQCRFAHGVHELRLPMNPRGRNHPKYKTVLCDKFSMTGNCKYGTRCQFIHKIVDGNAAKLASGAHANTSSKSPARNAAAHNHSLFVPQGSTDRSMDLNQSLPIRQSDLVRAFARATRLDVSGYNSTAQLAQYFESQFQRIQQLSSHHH
Nature of the assay: disruptors of C. elegans POS-1 RNA interaction – biochemical, fluorescence polarization, dose response (AID 1964).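 Also: purified POS-1 fused to maltose binding protein made in E. coli; potency of compounds blocking POS-1 binding to fluorescent RNA.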

The target of a further assay is Trypsin (Sus scrofa, UniProt P00761). Nature of the assay: trypsin protease activity blockade – biochemical, quenched peptide fluorescence, cherry-pick, selectivity assay for Rce1 protease inhibitor project, dose response (AID 488789).
Assay [8] is described as follows: blockade of melanocortin 4 receptor signaling – cell-based, plate reader, cherry pick, counter-screen for LGR2 antagonist project, dose response (AID 743444).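 Also: transfected HEK 293 cells stimulated with alpha-MSH peptide; potency of inhibitors of the alpha-MSH evoked signal.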 Type of assay: functional.
A short description of assay [9]: blockers of bursicon-stimulated LGR2 cAMP reporter – cell-based, HEK293, CRE-luciferase reporter, cherry pick, set 2, dose response (AID 743343).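 Also: transfected cells were stimulated with diluted bursicon conditioned medium after compound addition.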 Type of assay: functional. For orientation: A reporter such as luciferase makes a cellular process visible.

T1 sequence (Q9UBE0 whole entry): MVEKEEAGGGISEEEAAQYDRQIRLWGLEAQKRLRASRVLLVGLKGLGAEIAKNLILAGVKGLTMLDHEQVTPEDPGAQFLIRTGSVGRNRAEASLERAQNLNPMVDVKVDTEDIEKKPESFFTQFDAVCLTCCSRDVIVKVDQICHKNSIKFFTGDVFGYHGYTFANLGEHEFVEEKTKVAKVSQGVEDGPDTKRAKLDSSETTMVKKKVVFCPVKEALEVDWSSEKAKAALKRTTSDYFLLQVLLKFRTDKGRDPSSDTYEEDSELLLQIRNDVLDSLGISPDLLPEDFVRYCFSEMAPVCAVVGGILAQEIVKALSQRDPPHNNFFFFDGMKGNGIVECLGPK
T1 sequence (Q9UBT2 whole entry): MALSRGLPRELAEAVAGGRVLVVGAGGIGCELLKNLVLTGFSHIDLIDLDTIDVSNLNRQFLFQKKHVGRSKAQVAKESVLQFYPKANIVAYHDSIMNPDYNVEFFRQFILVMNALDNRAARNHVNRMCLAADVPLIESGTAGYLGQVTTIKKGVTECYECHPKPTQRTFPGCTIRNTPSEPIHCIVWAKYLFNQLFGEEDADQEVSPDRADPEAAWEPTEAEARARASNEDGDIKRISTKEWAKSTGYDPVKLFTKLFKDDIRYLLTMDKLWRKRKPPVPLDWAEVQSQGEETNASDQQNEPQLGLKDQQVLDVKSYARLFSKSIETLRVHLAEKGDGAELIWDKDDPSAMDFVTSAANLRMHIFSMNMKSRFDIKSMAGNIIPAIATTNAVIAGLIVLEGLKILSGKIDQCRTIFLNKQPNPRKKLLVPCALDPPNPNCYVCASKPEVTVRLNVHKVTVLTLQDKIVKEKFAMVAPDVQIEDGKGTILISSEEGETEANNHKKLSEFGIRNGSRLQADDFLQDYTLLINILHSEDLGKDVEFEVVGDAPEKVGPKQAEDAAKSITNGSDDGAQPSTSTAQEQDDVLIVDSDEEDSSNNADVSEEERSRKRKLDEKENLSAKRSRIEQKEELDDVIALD
Polyadenylate-binding protein 1, sequence (P11940 whole entry): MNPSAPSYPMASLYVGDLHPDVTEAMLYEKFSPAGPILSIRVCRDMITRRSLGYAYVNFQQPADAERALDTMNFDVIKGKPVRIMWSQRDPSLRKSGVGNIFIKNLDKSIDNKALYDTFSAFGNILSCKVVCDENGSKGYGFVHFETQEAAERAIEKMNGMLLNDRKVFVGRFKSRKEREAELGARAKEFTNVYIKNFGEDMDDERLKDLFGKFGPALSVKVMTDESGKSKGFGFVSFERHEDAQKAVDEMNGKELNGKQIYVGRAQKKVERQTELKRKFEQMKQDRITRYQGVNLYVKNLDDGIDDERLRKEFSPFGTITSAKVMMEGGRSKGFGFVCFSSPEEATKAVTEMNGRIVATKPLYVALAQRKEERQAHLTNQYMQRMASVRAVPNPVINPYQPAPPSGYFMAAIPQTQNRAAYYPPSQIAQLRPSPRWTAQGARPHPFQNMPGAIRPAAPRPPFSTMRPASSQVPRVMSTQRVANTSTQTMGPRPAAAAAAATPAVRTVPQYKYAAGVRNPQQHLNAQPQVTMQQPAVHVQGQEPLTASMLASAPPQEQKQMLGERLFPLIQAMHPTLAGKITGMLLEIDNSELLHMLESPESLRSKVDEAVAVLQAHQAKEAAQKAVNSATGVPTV
Trypsin, sequence (P00761 whole entry): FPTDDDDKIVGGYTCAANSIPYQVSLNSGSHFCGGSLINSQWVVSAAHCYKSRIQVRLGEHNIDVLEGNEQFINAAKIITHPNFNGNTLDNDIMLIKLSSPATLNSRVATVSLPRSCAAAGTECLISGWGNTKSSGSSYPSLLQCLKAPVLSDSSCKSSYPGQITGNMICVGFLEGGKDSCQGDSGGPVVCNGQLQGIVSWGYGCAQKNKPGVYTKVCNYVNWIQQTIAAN

With `O=C(O)c1ccc2c(c1)C1C(Cl)C(Sc3ccccc3[N+](=O)[O-])CC1C(c1cccc([N+](=O)[O-])c1)N2` (stereo not drawn), the half-inhibitory concentration (IC50) on SUMO-activating enzyme [1] was 23.6 µM (active); on SUMO-activating enzyme [2], 2.26 µM (active).

Regarding `CN(C(=O)C1CCN(C(=O)c2cccs2)CC1)c1ccccc1`, the IC50 in [3] and in [4] was > 100 µM (inactive) in each case.

For the compound `O=C(Nc1ccc(F)cc1)C1CCCN1C(=O)Oc1ccccc1` (stereo not drawn), the IC50 in assay [3] and in assay [4] was > 100 µM (inactive) each time.

Turning to `O=C1CCC/C(=N/NC(=O)c2sc3ccccc3c2Cl)C1`, the figures for the concentration for half-maximal inhibition (IC50) (at Insulin-degrading enzyme; in assay [6]) were 26.3 µM (not active) and > 55.7 µM (not active), respectively. Moreover, the values for the EC50 in assay [5] and in assay [7] were 20.5 µM (active) and 22 µM (active), respectively.

In the case of `c1ccc(-n2cnnc2SCc2cn3cccnc3n2)cc1`, the AC50 is 9.66 µM (active) on Trypsin, 19.4 µM (active) in assay [8] and 30.1 µM (active) in assay [9].
